According to patent US20070128217A1 (priority 2003, published 2007):

Experiments:
[1] = test system: antibodies in sera from SARS patients (sera 1a, 1b, 2, 6, 37, 62, London, SARS-yellow, SARS-green); assay type: binding, human; set-up: Binding of serum 6 to linear peptides of protein X1 of SARS-CoV Urbani / Binding of serum 37 to linear peptides of protein X1 of SARS-CoV Urbani / Binding of serum 6 to looped/cyclic peptide (PEPSCAN-ELISA) / Binding of serum 37 to looped/cyclic peptide (PEPSCAN-ELISA) / Binding of serum 37 to looped/cyclic peptides of protein X1 of SARS-CoV Urbani / Binding of serum 6 to linear peptides of protein X2 / Binding of serum 37 to linear peptides of protein X2 / Binding of serum 37 to looped/cyclic peptides of protein X2 of SARS-CoV Urbani / Binding of serum 6 to linear peptides of protein M of SARS-CoV Urbani / Binding of serum 37 to linear peptides of protein M of SARS-CoV Urbani / Binding of serum 6 to looped/cyclic peptides of protein M of SARS-CoV Urbani / Binding of serum 37 to looped/cyclic peptides of protein M of SARS-CoV Urbani / Binding of serum 6 to linear peptides of protein X3 of SARS-CoV Urbani / Binding of serum 37 to linear peptides of protein X3 of SARS-CoV Urbani / Binding of serum 37 to looped/cyclic peptides of protein X3 of SARS-CoV Urbani / Binding of serum 6 to linear peptides of protein X4 of SARS-CoV Urbani / Binding of serum 37 to linear peptides of protein X4 of SARS-CoV Urbani / Binding of serum 37 to looped/cyclic peptides of protein X4 of SARS-CoV Urbani / Binding of serum 6 to linear peptides of protein X5 of SARS-CoV Urbani / Binding of serum 37 to linear peptides of protein X5 of SARS-CoV Urbani / Binding of serum 37 to looped/cyclic peptides of protein X5 of SARS-CoV Urbani / Binding of serum 6 to linear peptides of protein N of SARS-CoV Urbani / Binding of serum 37 to linear peptides of protein N of SARS-CoV Urbani / Binding of serum 6 to linear peptide (PEPSCAN-ELISA) / Binding of serum 1a to looped/cyclic peptides of protein N of SARS-CoV Urbani / Binding of serum 1b to looped/cyclic peptides of protein N of SARS-CoV Urbani / Binding of serum 2 to looped/cyclic peptides of protein N of SARS-CoV Urbani / Binding of serum 6 to looped/cyclic peptides of protein N of SARS-CoV Urbani / Binding of serum 37 to looped/cyclic peptides of protein N of SARS-CoV Urbani / Binding of serum 62 to looped/cyclic peptides of protein N of SARS-CoV Urbani / Binding of serum London to looped/cyclic peptides of protein N of SARS-CoV Urbani / Binding of serum SARS-green to looped/cyclic peptides of protein N of SARS-CoV Urbani: unit not given here
[2] = test system: rabbit serum obtained by immunizing a rabbit with the SARS-CoV strain Frankfurt 1; assay type: binding; set-up: Binding of a rabbit serum to linear peptides / Binding of a rabbit serum to looped peptides / Rabbit serum linear peptides / Rabbit serum looped peptides / Binding of a rabbit serum to linear peptides of protein N of SARS-CoV Urbani (Rabbit serum linear peptides) / Binding of a rabbit serum to looped/cyclic peptides of protein N of SARS-CoV Urbani (Rabbit serum looped peptides): unit not given here
[3] = test system: control sera (pooled serum of ten healthy LUMC hospital workers; commercial negative donor pooled serum from the Dutch bloodbank); assay type: binding, human; set-up: Binding of Control serum LUMC to linear peptides / Binding of Control serum Blood-bank to linear peptides / Binding of Control serum LUMC to looped peptides / Binding of Control Serum Blood-Bank to Looped peptides / Binding of Control serum LUMC to linear peptides of the protein M of SARS-CoV Urbani / Binding of Control serum Blood-bank to linear peptides of the protein M of SARS-CoV Urbani / Binding of Control serum LUMC to looped peptides of the protein M of SARS-CoV Urbani / Binding of Control Serum Blood-Bank to Looped peptides of the protein M of SARS-CoV Urbani: unit not given here
[4] = test system: recombinant human anti-SARS-CoV antibody 03-018; assay type: binding; set-up: Binding of antibody 03-018 to linear peptides of the N protein of SARS-CoV Urbani / Binding of antibody 03-018 to looped/cyclic peptides of the N protein of SARS-CoV Urbani: unit not given here

Row | Sequence | Binding of serum 1a to linear peptides of protein N of SARS-CoV Urbani [1] | Binding of serum 1a to looped/cyclic peptides of protein N of SARS-CoV Urbani [1] | Binding of serum 1b to linear peptides of protein N of SARS-CoV Urbani [1] | Binding of serum 1b to looped/cyclic peptides of protein N of SARS-CoV Urbani [1] | Binding of serum 2 to linear peptides of protein N of SARS-CoV Urbani [1] | Binding of serum 2 to looped/cyclic peptides of protein N of SARS-CoV Urbani [1] | Binding of serum 6 to looped/cyclic peptides of protein N of SARS-CoV Urbani [1] | Binding of serum 37 to looped/cyclic peptides of protein N of SARS-CoV Urbani [1] | Binding of serum 62 to looped/cyclic peptides of protein N of SARS-CoV Urbani [1] | Binding of serum London to looped/cyclic peptides of protein N of SARS-CoV Urbani [1] | Binding of serum SARS-green to looped/cyclic peptides of protein N of SARS-CoV Urbani [1] | Binding of serum SARS-yellow to looped/cyclic peptides of protein N of SARS-CoV Urbani [1] | Binding of a rabbit serum to linear peptides of protein N of SARS-CoV Urbani (Rabbit serum linear peptides) [2] | Binding of a rabbit serum to looped/cyclic peptides of protein N of SARS-CoV Urbani (Rabbit serum looped peptides) [2] | Binding of Control Serum Blood-Bank to Looped peptides [3] | Binding of Control serum Blood-bank to linear peptides [3] | Binding of Control serum LUMC to linear peptides [3] | Binding of Control serum LUMC to looped peptides [3] | Binding of antibody 03-018 to linear peptides of the N protein of SARS-CoV Urbani [4] | Binding of antibody 03-018 to looped/cyclic peptides of the N protein of SARS-CoV Urbani [4] | other results
1 | RRVRGGDGKMKELSP | 0.3 | 0.3 | 0.2 | 0.1 | 0.4 | 0.3 | 0.2 | 0.4 | 0.3 | 0.4 | 0.1 | 0.3 | 0.2 | 0.4 | 0.6 | 0.9 | 0.9 | 0.6 | 0.1 | 0.2 | Binding of serum 6 to linear peptides of protein N of SARS-CoV Urbani [1]: 0.2; Binding of serum 37 to linear peptides of protein N of SARS-CoV Urbani [1]: 0.7; Binding of serum 62 to linear peptides of protein N of SARS-CoV Urbani [1]: 0.8; Binding of serum London to linear peptides of protein N of SARS-CoV Urbani [1]: 0.6; Binding of serum SARS-green to linear peptides of protein N of SARS-CoV Urbani [1]: 0.4; Binding of serum SARS-yellow to linear peptides of protein N of SARS-CoV Urbani [1]: 0.8
2 | RSAPRITFGGPTDST | 0.2 | 0.3 | 0.1 | 0.2 | 0.1 | 0.3 | 0.2 | 0.5 | 0.4 | 0.3 | 0.4 | 0.5 | 0.3 | 0.7 | 0.6 | 0.6 | 0.5 | 0.6 | – | – | Binding of serum 6 to linear peptides of protein N of SARS-CoV Urbani [1]: 0.1; Binding of serum 37 to linear peptides of protein N of SARS-CoV Urbani [1]: 0.6; Binding of serum 62 to linear peptides of protein N of SARS-CoV Urbani [1]: 0.6; Binding of serum London to linear peptides of protein N of SARS-CoV Urbani [1]: 0.5; Binding of serum SARS-green to linear peptides of protein N of SARS-CoV Urbani [1]: 0.4; Binding of serum SARS-yellow to linear peptides of protein N of SARS-CoV Urbani [1]: 0.5; Recognition of the peptide by antibody 03-018 [4]: recognized
3 | RSRGNSRNSTPGSSR | – | 0.3 | – | 0.1 | – | 0.2 | 0.2 | 0.2 | 0.1 | 0.2 | 0.1 | 0.1 | 0.4 | 1.1 | 0.3 | 0.8 | 0.6 | 0.3 | 0.1 | 0.2 | Binding of serum 1a to linear peptide (PEPSCAN-ELISA) [1]: 0.7; Binding of serum 1b to linear peptide (PEPSCAN-ELISA) [1]: 0.4; Binding of serum 2 to linear peptide (PEPSCAN-ELISA) [1]: 0.2; Binding of serum 6 to linear peptide (PEPSCAN-ELISA) [1]: 0.2; Binding of serum 37 to linear peptide (PEPSCAN-ELISA) [1]: 0.7; Binding of serum 62 to linear peptide (PEPSCAN-ELISA) [1]: 0.6; Binding of serum London to linear peptide (PEPSCAN-ELISA) [1]: 0.5; Binding of serum SARS-green to linear peptide (PEPSCAN-ELISA) [1]: 0.2; Binding of serum SARS-yellow to linear peptide (PEPSCAN-ELISA) [1]: 0.6
4 | SAAEASKKPRQKRTA | – | 0.2 | – | 0.1 | – | 0.2 | 0.1 | 0.4 | 0.3 | 0.3 | 0.1 | 0.2 | 0.2 | 0.3 | 0.4 | 0.8 | 0.8 | 0.4 | 0.1 | 0.2 | Recognition of the peptide by sera of SARS-CoV infected individuals, and form (linear, looped/cyclic) in which it is recognized [1]: recognized in linear form
5 | SAFFGMSRIGMEVTP | 0.3 | 0.4 | 0.2 | 0.3 | 0.2 | 0.4 | 0.2 | 0.5 | 0.4 | 0.4 | 0.4 | 0.5 | 0.2 | 0.5 | – | – | – | – | 0.1 | 0.2 | Binding of serum 6 to linear peptides of protein N of SARS-CoV Urbani [1]: 0.2; Binding of serum 37 to linear peptides of protein N of SARS-CoV Urbani [1]: 0.7; Binding of serum 62 to linear peptides of protein N of SARS-CoV Urbani [1]: 0.8; Binding of serum London to linear peptides of protein N of SARS-CoV Urbani [1]: 0.6; Binding of serum SARS-green to linear peptides of protein N of SARS-CoV Urbani [1]: 0.3; Binding of serum SARS-yellow to linear peptides of protein N of SARS-CoV Urbani [1]: 0.7; Control Serum Blood-Bank Looped peptides [3]: 0.6; Control serum Blood-bank linear peptides [3]: 0.8; Control serum LUMC linear peptides [3]: 0.7; Control serum LUMC looped peptides [3]: 0.5
